# Results: patent publication US6642216B2, “Isoprenoid pathway inhibitors for stimulating bone growth” (ZymoGenetics Corporation, priority 1996, dated 2003)
# Experiments:
# [1] = tested on: neonatal mouse calvaria; test: Neonatal mouse calvaria assay (in vitro bone formation); type: cell-based; parameters: Osteoblast Number, % increase over vehicle control / New Bone Area, % increase over vehicle control: concentration or dose not given beside the values
# Procedure: Briefly, four days after birth, the front and parietal bones of ICR Swiss white mouse pups are removed by microdissection and split along the sagittal suture.
# Three μm sections of the calvaria are prepared. Representative sections are selected for histomorphometric assessment of bone formation or bone resorption. Bone changes are measured on sections cut 200 μm apart. Osteoblasts and osteoclasts are identified by their distinctive morphology.
# Selected compounds and appropriate controls were assayed in vitro (ex vivo) for bone formation activity (described above in “Neonatal Mouse Calvaria Assay (in vitro)”). Histomorphometrical assessments of ex vivo calvaria were carried out using an OsteoMetrics bone morphometry measurement program, according to the manufacturer's instructions. Measurements were determined using either a 10- or 20-fold objective with a standard point counting eyepiece graticule.
# New bone formation was determined (using a 10× objective) by measuring the new bone area formed in one field in 3 representative sections of each bone (4 bones per group). Each measurement was carried out ½ field distance from the end of the suture. Both total bone and old bone area were measured. Data were expressed as new bone area in mm^2.
# Osteoblast numbers were determined by point counting. The number of osteoblast cells lining the bone surface on both sides of the bone were counted in one field using a 20× objective. Data were expressed as osteoblast numbers/mm of bone surface.
# The results were calculated as new bone area in mm^2×10^−3, as above.
# [2] = tested on: ICR Swiss white mice calvaria; test: In vivo murine calvarial bone growth assay; parameters: species or system mouse
# Procedure: Male ICR Swiss white mice, aged 4-6 weeks and weighing 13-26 gm, are employed, using 4-5 mice per group. The calvarial bone growth assay is performed as described in PCT application WO 95/24211, incorporated by reference. Briefly, the test compound or appropriate control vehicle is injected into the subcutaneous tissue over the right calvaria of normal mice. Typically, the control vehicle is the vehicle in which the compound was solubilized, and is PBS containing 5% DMSO or is PBS containing Tween (2 μl/10 ml). The animals are sacrificed on day 14 and bone growth measured by histomorphometry. Bone samples for quantitation are cleaned from adjacent tissues and fixed in 10% buffered formalin for 24-48 hours, decalcified in 14% EDTA for 1-3 weeks, processed through graded alcohols; and embedded in paraffin wax. Three to five μm sections of the calvaria are prepared, and representative sections are selected for histomorphometric assessment of the effects on bone formation and bone resorption. Sections are measured by using a camera lucida attachment to trace directly the microscopic image onto a digitizing plate. Bone changes are measured on sections cut 200 μm apart, over 4 adjacent 1×1 mm fields on both the injected and noninjected sides of the calvaria. New bone is identified by its characteristic woven structure, and osteoclasts and osteoblasts are identified by their distinctive morphology. Histomorphometry software (OsteoMeasure, Osteometrix, Inc., Atlanta) is used to process digitizer input to determine cell counts and measure areas or perimeters.
# The results are reported as a measurement of total bone area (and % increase in area over vehicle control), as shown below.
# [3] = tested on: BMP-2 promoter; test: ABA assay: BMP-2 promoter-luciferase reporter in 2T3-BMP-2-LUC osteoblast cells; type: cell-based, mouse
# [4] = Experiment 3, 8.88178E μg/ml (0.002193 μM lovastatin, 0.002087 μM fluvastatin)
compound,measurement,setting,value
"CC[C@H](C)C(=O)O[C@H]1C[C@@H](C)C=C2C=C[C@H](C)[C@H](CC[C@@H]3C[C@@H](O)CC(=O)O3)[C@H]21 [Lovastatin, lovastatin]","inducing bone formation, compared with BMP-2 and bFGF",[1],"as good as, or better than"
same,New Bone Area,"[1]; Experiment 3, 3 days",8.2 mm^2 × 10^−3
same,"New Bone Area, % increase over vehicle control","[1]; Experiment 3, 3 days",182%
same,Osteoblast Number,"[1]; Experiment 3, 3 days",128 Obs/field
same,"Osteoblast Number, % increase over vehicle control","[1]; Experiment 3, 3 days",152%
same,% increase in total bone area over vehicle control,[2]; 0.1 mg/kg/day,0%
same,Total Bone Area,[2]; 0.1 mg/kg/day,162 μm^2
same,% increase in total bone area over vehicle control,[2]; 1 mg/kg/day,41%
same,Total Bone Area,[2]; 1 mg/kg/day,237 μm^2
same,% increase in total bone area over vehicle control,[2]; 5 mg/kg/day,40%
same,Total Bone Area,[2]; 5 mg/kg/day,235 μm^2
same,% increase in total bone area over vehicle control,[2]; 10 mg/kg/day,42%
same,Total Bone Area,[2]; 10 mg/kg/day,239 μm^2
same,bone stimulatory effect compared with 12.5 μg/kg/day bFGF,[2]; 10 mg/kg/day,comparable
same,effect on total bone area,[2]; varying doses,dose-dependent increase in total bone area
same,dose-dependent stimulatory effect in the ABA assay,[3],dose-dependent stimulatory effect
same,% 59-0008 Response,"[3]; Experiment 1, 0.195312 μg/ml",22.840%
same,Fold increase over negative control,"[3]; Experiment 1, 0.195312 μg/ml",2.011 fold
same,% 59-0008 Response,"[3]; Experiment 1, 0.390625 μg/ml",27.830%
same,Fold increase over negative control,"[3]; Experiment 1, 0.390625 μg/ml",2.232 fold
same,% 59-0008 Response,"[3]; Experiment 1, 0.78125 μg/ml",35.220%
same,Fold increase over negative control,"[3]; Experiment 1, 0.78125 μg/ml",2.559 fold
same,% 59-0008 Response,"[3]; Experiment 1, 1.5625 μg/ml",67.080%
same,Fold increase over negative control,"[3]; Experiment 1, 1.5625 μg/ml",3.970 fold
same,% 59-0008 Response,"[3]; Experiment 1, 3.125 μg/ml",111.730%
same,Fold increase over negative control,"[3]; Experiment 1, 3.125 μg/ml",5.947 fold
same,% 59-0008 Response,"[3]; Experiment 1, 6.25 μg/ml",126.230%
same,Fold increase over negative control,"[3]; Experiment 1, 6.25 μg/ml",6.589 fold
same,% 59-0008 Response,"[3]; Experiment 1, 12.5 μg/ml",153.790%
same,Fold increase over negative control,"[3]; Experiment 1, 12.5 μg/ml",7.809 fold
same,% 59-0008 Response,"[3]; Experiment 1, 25 μg/ml",144.730%
same,Fold increase over negative control,"[3]; Experiment 1, 25 μg/ml",7.408 fold
same,% 59-0008 Response,"[3]; Experiment 1, 50 μg/ml",−22.510%
same,Fold increase over negative control,"[3]; Experiment 1, 50 μg/ml",0.003 fold
same,% 59-0008 Response,"[3]; Experiment 1, 200 μg/ml",−22.650%
same,Fold increase over negative control,"[3]; Experiment 1, 200 μg/ml",−0.003 fold
same,% 59-0008 Response,"[3]; Experiment 3, 0.002842 μg/ml",1.050%
same,Fold increase over negative control,"[3]; Experiment 3, 0.002842 μg/ml",1.032 fold
same,% 59-0008 Response,"[3]; Experiment 3, 0.009094 μg/ml",2.720%
same,Fold increase over negative control,"[3]; Experiment 3, 0.009094 μg/ml",1.083 fold
same,% 59-0008 Response,"[3]; Experiment 3, 0.029103 μg/ml",1.550%
same,Fold increase over negative control,"[3]; Experiment 3, 0.029103 μg/ml",1.048 fold
same,% 59-0008 Response,"[3]; Experiment 3, 0.093132 μg/ml",3.210%
same,Fold increase over negative control,"[3]; Experiment 3, 0.093132 μg/ml",1.099 fold
same,% 59-0008 Response,"[3]; Experiment 3, 0.298023 μg/ml",10.860%
same,Fold increase over negative control,"[3]; Experiment 3, 0.298023 μg/ml",1.333 fold
same,% 59-0008 Response,"[3]; Experiment 3, 0.953674 μg/ml",35.300%
same,Fold increase over negative control,"[3]; Experiment 3, 0.953674 μg/ml",2.083 fold
same,% 59-0008 Response,"[3]; Experiment 3, 3.051757 μg/ml",103.260%
same,Fold increase over negative control,"[3]; Experiment 3, 3.051757 μg/ml",4.169 fold
same,% 59-0008 Response,"[3]; Experiment 3, 9.765625 μg/ml",148.030%
same,Fold increase over negative control,"[3]; Experiment 3, 9.765625 μg/ml",5.543 fold
same,% 59-0008 Response,"[3]; Experiment 3, 31.25 μg/ml",166.770%
same,Fold increase over negative control,"[3]; Experiment 3, 31.25 μg/ml",6.118 fold
same,% 59-0008 Response,[3]; [4],0.620%
same,Fold increase over negative control,[3]; [4],1.019 fold
"CCC(C)(C)C(=O)O[C@H]1C[C@@H](C)C=C2C=C[C@H](C)[C@H](CC[C@@H]3C[C@@H](O)CC(=O)O3)[C@H]21 [Simvastatin, simvastatin]",New Bone Area,"[1]; Experiment 1, 3 days",8.5 mm^2 × 10^−3
same,"New Bone Area, % increase over vehicle control","[1]; Experiment 1, 3 days",77%
same,Osteoblast Number,"[1]; Experiment 1, 3 days",156 Obs/field
same,"Osteoblast Number, % increase over vehicle control","[1]; Experiment 1, 3 days",63%
same,New Bone Area,"[1]; Experiment 1, 7 days",17.4 mm^2 × 10^−3
same,"New Bone Area, % increase over vehicle control","[1]; Experiment 1, 7 days",123%
same,Osteoblast Number,"[1]; Experiment 1, 7 days",154 Obs/field
same,"Osteoblast Number, % increase over vehicle control","[1]; Experiment 1, 7 days",68%
same,New Bone Area,"[1]; Experiment 2, 3 days",15.4 mm^2 × 10^−3
same,"New Bone Area, % increase over vehicle control","[1]; Experiment 2, 3 days",285%
same,Osteoblast Number,"[1]; Experiment 2, 3 days",154 Obs/field
same,"Osteoblast Number, % increase over vehicle control","[1]; Experiment 2, 3 days",70%
same,New Bone Area,"[1]; combination study, IBN (1 μM), 59-0328 0.1 μM alone",5.1 ± 0.49 mm^2 × 10^−3
same,New Bone Area,"[1]; combination study, IBN (1 μM), 59-0328 0.2 μM alone",5.23 ± 0.89 mm^2 × 10^−3
same,New Bone Area,"[1]; combination study, IBN (10 μM), 59-0328 0.1 μM alone",4.25 ± 0.59 mm^2 × 10^−3
same,New Bone Area,"[1]; combination study, IBN (10 μM), 59-0328 0.2 μM alone",6.83 ± 1.54 mm^2 × 10^−3
same,% increase in total bone area over vehicle control,[2]; 1 mg/kg/day,2%
same,Total Bone Area,[2]; 1 mg/kg/day,172 μm^2
same,% increase in total bone area over vehicle control,[2]; 5 mg/kg/day,20%
same,Total Bone Area,[2]; 5 mg/kg/day,202 μm^2
same,% increase in total bone area over vehicle control,[2]; 10 mg/kg/day,46%
same,Total Bone Area,[2]; 10 mg/kg/day,245 μm^2
same,increase in the number of osteoblasts,"[2]; mouse, in vivo",1.5 fold
same,% 59-0008 Response,"[3]; Experiment 1, 0.195312 μg/ml",29.030%
same,% 59-0008 Response,"[3]; Experiment 1, 0.390625 μg/ml",38.210%
same,% 59-0008 Response,"[3]; Experiment 1, 0.78125 μg/ml",69.600%
same,% 59-0008 Response,"[3]; Experiment 1, 1.5625 μg/ml",99.170%
same,% 59-0008 Response,"[3]; Experiment 1, 3.125 μg/ml",135.610%
same,% 59-0008 Response,"[3]; Experiment 1, 6.25 μg/ml",141.970%
same,% 59-0008 Response,"[3]; Experiment 1, 12.5 μg/ml",131.300%
same,% 59-0008 Response,"[3]; Experiment 1, 25 μg/ml",148.310%
same,% 59-0008 Response,"[3]; Experiment 1, 50 μg/ml",−22.950%
same,% 59-0008 Response,"[3]; Experiment 1, 100 μg/ml",−23.010%
same,% 59-0008 Response,"[3]; Experiment 1, 200 μg/ml",−22.960%
same,% 59-0008 Response,"[3]; Experiment 2, 0.465820 μM, 0.195312 μg/ml",0.310%
same,% 59-0008 Response,"[3]; Experiment 2, 0.931640 μM, 0.390625 μg/ml",2.600%
same,% 59-0008 Response,"[3]; Experiment 2, 1.863281 μM, 0.78125 μg/ml",6.820%
same,% 59-0008 Response,"[3]; Experiment 2, 3.726562 μM, 1.5625 μg/ml",19.670%
same,% 59-0008 Response,"[3]; Experiment 2, 7.453125 μM, 3.125 μg/ml",51.660%
same,% 59-0008 Response,"[3]; Experiment 2, 14.90625 μM, 6.25 μg/ml",104.640%
same,% 59-0008 Response,"[3]; Experiment 2, 29.8125 μM, 12.5 μg/ml",152.290%
same,% 59-0008 Response,"[3]; Experiment 2, 59.625 μM, 25 μg/ml",180.640%
same,% 59-0008 Response,"[3]; Experiment 2, 119.25 μM, 50 μg/ml",189.430%
same,% 59-0008 Response,"[3]; Experiment 2, 238.5 μM, 100 μg/ml",304.100%
same,% 59-0008 Response,"[3]; Experiment 2, 477 μM, 200 μg/ml",222.180%
